Experimental data taken from the NIST ThermoML archive (doi:10.1016/j.fluid.2008.03.015).
Several values for one entry are separate records, joined by “and”; a condition that tells them apart may be missing. Identical values can stand only once.

Settings: Liquid, Closed cell (Static) method

ClCCCl [1,2-dichloroethane]
Settings	vapor or sublimation pressure
284.86 K	5.38 kPa
284.87 K	5.37 kPa
294.83 K	8.96 kPa
294.84 K	8.95 kPa
304.82 K	14.33 kPa and 14.32 kPa
314.81 K	22.18 kPa
314.83 K	22.18 kPa
324.82 K	33.28 kPa
324.83 K	33.27 kPa
334.79 K	48.45 kPa
334.82 K	48.46 kPa
344.81 K	67.97 kPa
344.82 K	67.98 kPa
354.89 K	94.95 kPa and 94.94 kPa

COC(C)(C)C [2-methoxy-2-methylpropane]
Settings	vapor or sublimation pressure
274.9 K	11.59 kPa
274.91 K	11.59 kPa
284.82 K	18.55 kPa
294.8 K	28.78 kPa
294.81 K	28.78 kPa
304.79 K	43.24 kPa and 43.26 kPa
314.75 K	62.95 kPa
314.76 K	62.97 kPa
324.9 K	89.66 kPa and 89.69 kPa
334.85 K	124.02 kPa
344.84 K	167.14 kPa
344.85 K	167.57 kPa
354.82 K	221.79 kPa and 221.39 kPa

CC(C)OC(C)C [diisopropyl ether]
Settings	vapor or sublimation pressure
284.93 K	10.74 kPa and 10.75 kPa
294.9 K	17.21 kPa
294.91 K	17.21 kPa
304.87 K	26.57 kPa
304.89 K	26.58 kPa
314.86 K	39.71 kPa
314.87 K	39.72 kPa
324.85 K	57.64 kPa
324.87 K	57.65 kPa
334.85 K	81.41 kPa and 81.42 kPa
344.84 K	112.36 kPa
344.85 K	112.39 kPa
354.87 K	151.81 kPa
354.88 K	151.82 kPa

CCOCC [diethyl ether]
Settings	vapor or sublimation pressure
255.47 K	10.11 kPa
255.48 K	10.13 kPa
255.5 K	10.14 kPa
265.44 K	17.06 kPa
265.45 K	17.07 kPa
274.86 K	26.9 kPa
274.87 K	26.91 kPa
284.83 K	41.98 kPa
284.84 K	42 kPa
294.77 K	62.89 kPa
294.78 K	62.93 kPa
304.75 K	91.58 kPa and 91.56 kPa
304.76 K	91.6 kPa
314.74 K	129.3 kPa and 129.45 kPa
314.75 K	129.42 kPa
324.89 K	179.51 kPa and 179.65 kPa and 179.77 kPa
